We go through two compounds from patent US11364256B2, “Viral inhibition” (Monash University, priority 2020, dated 2022).

pIC50: −log10 of the molar value. Read-outs that look alike come from different tables or passages of the source.

Data set [1] relates to Vero/hSLAM cells. The conditions noted are these: for toxicity at any of the time points tested: sample wells or parallel drug alone samples, 5 μM.
For data set [2], the system named is seasonal coronavirus 229E. Put plainly: Huh-7 cells infected with 229E, treated after infection, viral load by real-time PCR of supernatant. The class given is cell-based. The note with it: Huh-7, 229E MOI 0.01, 48 h post infection, read-out: IC50 (FIG. 6, panels A/B). On the procedure:
Huh-7 cells were infected with 229E (MOI=0.01) for 2 h prior to addition of vehicle (DMSO), Ivermectin (FIG. 6, panel A) or Moxidectin (FIG. 6, panel B) at the indicated concentrations. Samples were taken 48 h post infection for quantitation of viral load using real-time PCR of supernatant. Results represent mean±SD (n=6) relative to DMSO alone.

Data set [3] has as its system SARS-CoV-2. Briefly: Prophylactic pre-treatment of Vero/hSLAM cells before SARS-CoV-2 infection, viral load by real-time PCR of supernatant. It counts as cell-based. On the procedure:
Vero/hSLAM cells were pre-treated with DMSO, ivermectin or Moxidectin at the indicated concentrations for 2 h prior to infection with SARS-CoV-2 (MOI=0.01) for 2 h in the presence of DMSO or drugs. Samples were washed post-adsorption and incubated in the fresh media containing DMSO or drugs for 48 h before quantitation of viral load using real-time PCR of supernatant. The results shown in FIG. 5 represent mean±SD (n=6) relative to DMSO alone. […] Average IC50 values for CALU-3 cells compared to Vero/hSLAM cells assayed under the same conditions are shown (Table, right, n=independent experiments).

For data set [4], the system named is SARS-CoV-2 isolate Australia/VIC01/2020. Put plainly: SARS-CoV-2 infected Vero/hSLAM cells treated after infection, viral RNA by real-time RT-PCR. It counts as cell-based.
Data set [5] has as its system seasonal coronavirus 229E. Put plainly: Prophylactic pre-treatment of Huh-7 cells before 229E infection, viral load by real-time PCR. The conditions noted are these: Huh-7 pre-treated 2 h, 229E MOI 0.01, 48 h; read-out: IC50 (FIG. 6, panel C), prophylactic. It counts as cell-based. How it is done:
For assessment of prophylactic potential Huh-7 cells were pre-treated with DMSO or ivermectin at the indicated concentrations for 2 h prior to infection with 229E (MOI=0.01) for 2 h in the presence of DMSO or ivermectin (FIG. 6, panel C). Samples (n=5) were washed post-adsorption and incubated in the fresh media containing DMSO or ivermectin for 48 h before quantitation of viral load as above.

Data set [6] deals with SARS-CoV-2 clinical isolate Australia/VIC01/2020. Put plainly: SARS-CoV-2 infected CALU-3 (human lung) cells, viral load by real-time PCR of supernatant. The class given is cell-based. On the procedure:
CALU-3 (human lung) cells were infected with SARS-CoV-2 clinical isolate Australia/VIC01/2020 (MOI=0.01) for 2 h prior to addition of vehicle (DMSO) or Ivermectin at the indicated concentrations indicated in FIG. 3. Samples were taken 24 h post infection for quantitation of viral load using real-time PCR of supernatant. The results illustrated in FIG. 3 represent mean±SD (n=6) relative to DMSO alone.

Where [7] appears, read: 48 h, compared to vehicle DMSO, Vero/hSLAM, E gene, concentration not restated (5 μM in FIG. 2, panel A).
The mark [8] stands for this setting: 5 μM, 24 h, MOI 0.1, Vero/hSLAM, compared to vehicle DMSO.

For the compound `CO/N=C1\C[C@]2(C[C@@H]3C[C@@H](C/C=C(\C)C[C@@H](C)/C=C/C=C4\CO[C@@H]5[C@H](O)C(C)=C[C@@H](C(=O)O3)[C@]45O)O2)O[C@H](/C(C)=C/C(C)C)[C@H]1C` [moxidectin], the “toxicity at any of the time points tested” value in data set [1] was “No toxicity”. The pIC50 was 6.62 in data set [2] (Human coronavirus 229E); 5.78 in data set [3] (Severe acute respiratory syndrome coronavirus 2, Vero, read-out: IC50 +/− SEM (n*), treated prophylactically); 5.74 in data set [3] (Severe acute respiratory syndrome coronavirus 2, pre-treated 2 h, MOI 0.01, 48 h, supernatant, Vero/hSLAM, read-out: IC50 (FIG. 5), prophylactic); 5.89 in data set [4] (Severe acute respiratory syndrome coronavirus 2, 24 h, supernatant, E gene, MOI 0.01, Vero/hSLAM, read-out: Calculated IC50 (FIG. 2, panel B)); 5.89 in data set [4] (Severe acute respiratory syndrome coronavirus 2, 48 h, supernatant, E gene, MOI 0.01, Vero/hSLAM, read-out: Calculated IC50 (FIG. 2, panel C)); 5.62 in data set [4] (Severe acute respiratory syndrome coronavirus 2, 72 h, supernatant, E gene, MOI 0.01, Vero/hSLAM, read-out: Calculated IC50 (FIG. 2, panel D)). Moreover, in data set [4] (setting [7]), the “reduction in viral RNA present in the supernatant (released virions)” value was 99.9%.

Take ivermectin: the “toxicity at any of the time points tested” value in data set [1] is on record as “No toxicity”. For the same compound, the “toxicity at any of the concentrations tested” value in data set [1] (serial dilutions, 48 h) is on record as “no toxicity”. Further, the pIC50 is 6.74 in data set [2]; 5.69 in data set [5]; 6.38 in data set [6] (CALU-3, 24 h post infection, supernatant, MOI 0.01, read-out: IC50 (FIG. 3)); 6.39 in data set [6] (average of independent experiments, CALU-3, read-out: IC50 +/− SEM (n*), CALU-3); 5.76 in data set [3] (average of independent experiments, Vero/hSLAM, read-out: IC50 +/− SEM (n*), treated prophylactically); 5.80 in data set [3] (pre-treated 2 h, MOI 0.01, 48 h, supernatant, Vero/hSLAM, read-out: IC50 (FIG. 5), prophylactic). In addition, the pIC50 in data set [4] (24 h, supernatant, E gene, MOI 0.01, Vero/hSLAM, read-out: Calculated IC50 (FIG. 2, panel B)) is 5.85; in data set [4] (48 h, supernatant, E gene, MOI 0.01, Vero/hSLAM, read-out: Calculated IC50 (FIG. 2, panel C)), 5.66; in data set [4] (72 h, supernatant, E gene, MOI 0.01, Vero/hSLAM, read-out: Calculated IC50 (FIG. 2, panel D)), 5.51; in data set [4] (E gene, 48 h, treated 2 h post infection, MOI 0.1, Vero/hSLAM, panels C/D = supernatant and cell pellets, read-out: IC50 of ivermectin treatment (FIG. 1, panel C)), 5.55; in data set [4] (E gene, 48 h, treated 2 h post infection, MOI 0.1, Vero/hSLAM, panels C/D = supernatant and cell pellets, read-out: IC50 of ivermectin treatment (FIG. 1, panel D)), 5.62; in data set [4] (RdRp gene primers, 48 h, MOI 0.1, Vero/hSLAM, panels E/F = released (supernatant) and cell-associated virus, read-out: IC50 of ivermectin treatment (FIG. 1, panel E)) it was 5.60. Moreover, the pIC50 is 5.66 in data set [4] (RdRp gene primers, 48 h, MOI 0.1, Vero/hSLAM, panels E/F = released (supernatant) and cell-associated virus, read-out: IC50 of ivermectin treatment (FIG. 1, panel F)); 5.63 in data set [4] (average of independent experiments, Vero/hSLAM assayed under the same conditions as CALU-3, read-out: IC50 +/− SEM (n*), Vero/hSLAM). The “reduction in cell-associated viral RNA (unreleased and unpackaged virions)” value in data set [4] (setting [8]) amounted to 99.8%. Also, the “reduction in viral RNA present in the supernatant (released virions)” value is reported as 93% in data set [4] (setting [8]) and 99.5% in data set [4] (setting [7]). For the same compound, the “reduction in viral RNA in both supernatant and cell pellets” value in data set [4] (5 μM, 48 h, E gene, Vero/hSLAM) is over 5000. Moreover, the “reduction in viral RNA (equating to the >5000 reduction)” value in data set [4] (5 μM, 48 h, supernatant and cell pellets, Vero/hSLAM) amounted to 99.98%. Further, the “further reduction in viral RNA at 72 h” value in data set [4] (5 μM, 72 h versus 48 h, MOI 0.1, Vero/hSLAM) is “no further reduction”.
